Entries after “also recorded” stand apart in the source; their conditions may differ. Read-outs that look alike come from different tables or passages of the source.
Experiments:
[1] = system: intracellular forms of T. cruzi; set-up: method as in PMID 20428688; conditions: read-out: EC90 value of Bz against the intracellular forms of T. cruzi; cited from earlier work
H9C2 2D cultures = test: Cardiotoxicity on H9C2 monolayers (2D), PrestoBlue; type: cell-based; conditions: Rattus norvegicus
Source text: L929 cell lines were used to evaluate the effect of the nucleoside derivatives on the cellular viability of mammalian host cells and to assess their activity against intracellular forms of T. cruzi (Tulahuen strain expressing E. coli β-galactosidase gene, DTU VI) as reported. 2D and 3D culture systems of rat cardiomyoblast cell lines (H9C2(2-1)) were used to evaluate cardiotoxicity and to test the derivatives’ activity on intracellular forms (Y strain, DTU II). In all assays, the cell cultures were maintained at 37 °C under an atmosphere of 5% CO2.
L929 cells seeded in sterile 96-well microtiter plates were exposed or not to increasing concentrations (up to 200 µM) of the compounds. […] Cellular viability was assessed through AlamarBlue® (resazurin sodium salt) colorimetric assay, and the results were expressed as % reduction in cell growth/viability compared to untreated control, and an IC50 value determined. For the assays using H9C2 cultures, 25 × 10^3 cells/well were seeded in a 96-well microtiter plates (flat and U bottoms, precoated with agarose 1% for preparing 2- and 3D matrices, respectively) and maintained at 37 °C [48, 54].
[…] Cell viability was measured using the PrestoBlue® (PB) colorimetric assay, the results evaluated as % reduction in cell growth/viability compared to untreated control, and an IC50 value determined. The data results from at least two independent experiments done in at least duplicates.

[2] = system: promastigotes of Lmex^ΔNT1+TcrNT2; test: Resazurin-based assay on Cas9^ΔNT1+TcrNT2 promastigotes; type: cell-based, Leishmania mexicana; conditions: for EC50: Leishmania mexicana, read-out: Lmex^ΔNT1+TcrNT2 EC50 (μM)
Procedure: Bloodstream trypomastigotes of the Y strain (DTU II) were obtained by cardiac puncture of infected Swiss Webster mice on the parasitemia peak to perform drug sensitivity assays. Trypomastigote forms of the Tulahuen-β gal strain were collected from the supernatant of previously infected L929 cell cultures (host/parasite cell ratio 10:1). The intracellular forms T. cruzi were studied by the infection of L929 and H9C2 (2D and 3D) cell cultures infected for 48 and 24 h with trypomastigotes of Tulahuen-β gal and Y strains, respectively. The Leishmania mexicana-Cas9 T7 strain (LmexCas9) was derived from L. mexicana WT promastigotes by expression of the Streptococcus pyogenes Cas9 nuclease gene ‘Cas9′ and maintained on 32 μg/mL hygromycin [51]. This strain and the derived strains Cas9^ΔNT1 and Cas9^ΔNT1+TcrNT2 were cultured in HOMEM medium supplemented with 10% of FBS and 1% Penicillin-Streptomycin antibiotic in unvented flasks at 25 °C [52]. The Cas9^ΔNT1 strain is identical to Cas9 except that the LmexNT1.1/NT1.2 locus encoding the L. mexicana adenosine/ pyrimidine transporters was excised using Cas9 [17, 40]. Cas9^ΔNT1+TcrNT2 is the further modification of that strain by the expression of the T. cruzi nucleoside transporter 2 (TcrNT2) gene in it, using the vector pNUS-HcN [53]. Appropriate antibiotics were added for the selection and maintenance of transfectants.
The EC50 values for nucleoside analogues against Leishmania mexicana promastigotes of the Cas9, Cas9^ΔNT1 and Cas9^ΔNT1+TcrNT2 strains used a resazurin-based assay, as described. Briefly, the assays were performed in standard HOMEM medium and culture conditions, in white opaque 96-well plates. For each test compound (stored as a 40 mM stock solution in 100% DMSO at −20 °C), a doubling dilution was performed over 2 rows of the plate, keeping the last well free as no-drug control with HOMEM only (23 doubling dilutions; highest concentration 100 µM). To each well, 100 µL of HOMEM containing 2 × 10^5 cells of the appropriate L. mexicana line was added, and the plates incubated for 72 h at 25 °C, followed by the addition of 20 µL of resazurin solution and further incubation for 48 h. Fluorescence was read on a FLUOstar OPTIMA plate reader (BMG Labtech, Germany), at an excitation wavelength of 544 nm and an emission wavelength of 620 nm. The EC50 values were determined by the GraphPad Prism 8.0 software using an equation for a sigmoid curve with variable slope. Pentamidine was used as positive control, and every experiment was independently performed at least 3 times independently.

[3] = system: T. cruzi (Tulahuen strain) in L929; test: Washout assay in T. cruzi-infected L929 cultures (Tulahuen strain); type: cell-based, Trypanosoma cruzi; conditions: 10 μM for seven days, then seven days drug-free medium; light microscopy
Procedure: To explore in vitro parasitic exhaustion, T. cruzi-infected L929 cultures were incubated for seven days with the compounds at 10 μM. Then, fresh drug-free medium was added and replaced every 48 h. After seven days of incubation, the number of released parasites into the supernatant was quantified by light microscopy.
T. cruzi-infected L929 cultures (using the Tulahuen-β gal strain) were exposed or not to 10 µM of each nucleoside derivative, and the RPMI culture medium (containing the tested compounds) replaced every 48 h. After seven days of incubation, the cultures were rinsed with 0.1 M phosphate buffered saline (PBS), and drug-free culture medium was added for another seven days of incubation, replacing the drug-free medium every 48 h. Parasites released into the supernatant of the cell cultures were quantified using light microscopy, and the parasite burden into the infected cultures was analyzed by adding the substrate CPRG (chlorophenol red ß-D-galactopyranoside) followed by spectrophotometric measurements at 570 nm. The results were expressed as percentage of reduction in parasite growth compared to untreated cells, and EC50 values were calculated. Bz was used as a positive control. The data results from two independent experiments done in at least duplicate.

[4] = H9c2, 24 h, read-out: H9C2 IC50 µM
[5] = H9c2, 168 h, read-out: Cardiotoxic profile IC50 (µM) 2D

Compound	EC90 [1]	IC50 (H9C2 2D cultures; [4])	IC50 (H9C2 2D cultures; [5])	EC50 [2]	Lmex^ΔNT1+TcrNT2 Sensitization (fold) ([2]; ratio of the EC50 values of the Cas9^ΔNT1 and Cas9^ΔNT1+TcrNT2 strains)	parasites released into the supernatant after washout [3]
O=C(Cn1ccnc1[N+](=O)[O-])NCc1ccccc1 [Bz, Benznidazole, reference compound]	10 µM	> 300 µM	> 200 µM	–	–	–
Nc1ncnc2c1c(-c1ccc(Cl)c(Cl)c1)cn2[C@@H]1O[C@H](CO)C[C@H]1O [FH8513, 7-(3,4-dichlorophenyl)-3′-deoxytubercidin]	–	268 µM	18.6 µM	31.1 ± 0.5 µM	3.2 fold	–
Nc1ncnc2c1c(-c1ccc(Cl)c(F)c1)cn2[C@@H]1O[C@H](CO)[C@@H](O)[C@H]1O [FH10714, 7-(3-fluoro,4-chlorophenyl)tubercidin]	–	> 300 µM	41.8 µM	> 100 µM	–	sterilized the infected cultures; also recorded: cleared the parasitism; also recorded: eliminated the parasitism
Nc1ncnc2c1c(-c1ccc(F)c(F)c1)cn2[C@@H]1O[C@H](CO)[C@@H](O)[C@H]1O [FH11706, 7-(3,4-Difluorophenyl)tubercidin]	–	> 300 µM	47.7 µM	–	–	–

— article PMC9695592, “Phenotypic Evaluation of Nucleoside Analogues against Trypanosoma cruzi Infection: In Vitro and In Vivo Approaches” (Molecules, 2022)
